In patent US20120329761A1, “USE OF TIGECYCLINE FOR TREATMENT OF CANCER” (UNIVERSITY HEALTH NETWORK, priority 2010, published 2012):

Legend:
[1] = test system: normal hematopoietic cells; assay: Methylcellulose colony formation assay; format: cell-based, human; settings: 5 μM, normal hematopoietic cells n=5, colonies at 14 days
Method: (§1) FIG. 2. Tigecycline induces cell death and inhibits clonogenic growth in primary AML cells preferential over normal hematopoietic cells. Mononuclear cells from peripheral blood of leukemia patients (blast count >80%) and normal G-CSF expanded donors was treated with increasing concentrations of tigecycline for 48 hours. Cell viability was measured by Annexin-PI flow cytometry staining. Cell viability is expressed as a mean percentage plus or minus SD (n=3) relative to DMSO-treated cells. Mononuclear cells from primary AML patient samples (A, B) and normal peripheral blood cells (C) were plated in methylcelluose with 5 μM of Tigecycline. (D) Colony forming units were counted at 7 days (AML) and 14 days (Normal) post plating. […]
(§2) To assess clonogenic growth, primary AML cells (1.0×10^5/mL) or granulocyte colony-stimulating factor (G-CSF) mobilized PBSCs (1.0×10^5/mL) were plated in duplicate with increasing concentrations of tigecycline in MethoCult GF H4434 medium (StemCell Technologies, Vancouver, BC) containing 1% methycellulose in IMDM, 30% FCS, 1% bovine serum albumin, 3 U/mL of recombinant human erythropoietin, 10^−4 M of 2-mercaptoethanol, 2 mM of L-glutamine, 50 ng/mL of recombinant human stem cell factor, 10 ng/mL of GM-CSF, and 10 ng/mL of rh IL-3). Seven days (AML samples) or 14 days (normal PBCS) after plating, the number of colonies was counted as previously described^31.

[2] = test system: primary AML patient samples; assay: Methylcellulose colony formation assay; format: cell-based, human; settings: 5 μM, primary AML n=7, colonies at 7 days
Method: as §1, §2

[3] = test system: OCI-AML2 human leukemia cells; format: in vivo, SCID mice
Method: FIG. 3. Tigecycline has anti-leukemia activity in vivo. (A, B) Human leukemia (OCI-AML2) were injected subcutaneously into the flank of SCID mice. Seven days after injection, once tumors were palpable, mice were treated with tigecycline (50 mg/kg or 100 mg/kg twice daily by i.p. injection) or vehicle control (n=10 per group). Fourteen days after injection of cells, mice were sacrificed, tumors excised and the volume and mass of the tumors were measured. The tumor mass and the mean volume+SD are shown. Differences in tumor volume and mass were analyzed by an unpaired t-test: * p<0.001. (C) Tumours from two control mice, and three tigecycline-treated mice were excised after 5 days of treatment and total proteins were extracted and analyzed by western blotting for Cox-1, Cox-2, Cox-4, and tubulin. (D) Primary cells from three AML patients were injected intra-femorally into the right femur of female sub-lethally irradiated NOD/SCID mice. Three weeks after injection mice were treated with tigecycline (100 mg/kg by i.p. injection daily) or vehicle control (n=10 per group) for three weeks. Following treatment, human leukemia cell engraftment in the injected right femur was measured by FACS analysis for human CD45^+CD19^−CD33^+ cells. Data represent mean±SD of engrafted human cells. Cells from one patient experiment were used to assess secondary engraftment in a second generation of NOD/SCID mice. Equal numbers of viable leukemia cells from bone marrow of control and tigecycline treated mice were injected into irradiated NOD/SCID mice, which were not treated with tigecycline. Six weeks later, human leukemia cell engraftment in the injected right femur was measured by FACS analysis for human CD45^+CD19^−CD33^+ cells. (* p<0.005, Student's t-test).
OCI-AML2 human leukemia cells (1×10^6) were injected subcutaneously into the flanks of SCID mice (Ontario Cancer Institute, Toronto, ON). Seven days after injection, once tumours were palpable, mice were treated with tigecycline twice daily (50 mg/kg or 100 mg/kg by i.p. injection) or vehicle control (n=10 per group) for 14 days. Tumor volume (tumor length×width^2×0.5236) was measured three times a week using calipers. Twenty-one days after injection of cells, mice were sacrificed, tumors excised and the volume and mass of the tumors were measured.
Given the effects of tigecycline as a potential anti-leukemia agent, tigecycline in mouse models of leukemia was evaluated. To evaluate the anti-tumor efficacy of tigecycline in vivo, human OCI-AML2 leukemia cells were injected into the flank of SCID mice. […] Tumor volume and mass were measured over time (FIGS. 3A, B). […]

TEX cells = assay: ROS generation, DCF-DA and DHE staining; format: cell-based, human; settings: time-points up to 24 hours
Method: FIG. 4. […] (A) Cells from TEX, OCI-AML2 and two primary AML patients were treated with increasing concentrations (2.5 μM and 5 μM) of tigecycline for 36 and 48 hours of tigecycline. Total proteins were extracted and analyzed by western blotting for Cox-1, Cox-2, Cox-4, grp78, XIAP, actin and tubulin. (B) TEX and AML patient cells were treated with increasing concentrations (2.5 μM and 5 μM) of tigecycline. Cox-1, Cox-2, and Cox-4 mRNA expression relative 18S was determined by quantitative RT-PCR. Data is shown as mean±SD. (C) TEX cells were treated with increasing concentrations of tigecycline and chloramphenicol (CAP) for 72 hours. Complex I, II and IV enzyme activity relative to citrate synthase activity was determined as described in materials and methods. (D) Cells from TEX, primary AML patients, and normal donors were treated with increasing concentrations of tigecycline. Mitochondrial membrane potential (Δψ) was determined by staining cells with JC-1 dye, and flow cytometry analysis (Red/Green ratio). Reactive oxygen species generation (ROS) was determined by staining with h2-DCFDA and Dihydroethidium (DHE).
A byproduct of the mitochondrial enzyme activities of the electron transport chain is the generation of reactive oxygen species (ROS). […] Therefore, the role of tigecycline on ROS generation in leukemia cells by analyzing hydrogen peroxide ions (H2O2) using a dichlorofluorescein dye (DCF-DA), and superoxide anions using dihydroethidium (DHE) was examined.

[4] = cited from earlier work
[5] = 50 mg/kg or 100 mg/kg twice daily i.p. for 14 days, p<0.001

Q: Which “reduction of clonogenic growth” value [1] does the source give for `CN(C)c1cc(NC(=O)CNC(C)(C)C)c(O)c2c1C[C@H]1C[C@H]3[C@H](N(C)C)C(O)=C(C(N)=O)C(=O)[C@@]3(O)C(O)=C1C2=O` [tigecycline] here?
A: The value was 34±5%.

Q: And the “reduction of clonogenic growth” value [2]?
A: The value was 93±4%.

Q: What about the “expression of cytochrome C oxidase subunits in tumours” value ([3]; 50 mg/kg bid for 5 days, western blotting) of the same compound?
A: The value was “preferential decreased expression of mitochondrially translated subunits Cox-1 and Cox-2”.

Q: And the “decrease in tumor mass vs vehicle control” value [3, 5]?
A: The value was “up to 70%”.

Q: And the “decrease in tumor volume vs vehicle control” value [3, 5]?
A: The value was “up to 70%”.

Q: And the “toxicity in xenograft mice” value ([3]; mouse, in vivo)?
A: The value was “No evidence of toxicity”.

Q: What about the ROS generation (TEX cells) of the same compound?
A: The ROS generation was “no observed increase in ROS generation”.

Q: What about the toxicity ([4]; 50 mg intravenously every 12 hours) of the same compound?
A: The toxicity was “without significant toxicity”.

Q: What about the “half life in humans” value ([4]; humans) of the same compound?
A: The value was 27 h.

Q: And the tolerability ([4]; intravenous doses of 300 mg)?
A: The tolerability was “well tolerated save for mild nausea”.
